Values joined by “and” are separate entries in the source; they are usually repeats but may differ in a detail not shown here. Equal entries are not always repeated. Blank lines part the entries; values can stand above or below the compound they belong to.
What was measured:
[1] = molecular target: MEK-1 (constitutively active MEK1EE) (Homo sapiens, UniProt Q02750, S218E/S222E); assay: MEK-1 enzyme assay (HTRF, phosphorylation of ERK2K52A); type: biochemical; details: 3 μM ATP, 2 hours room temperature
Sequence of MEK-1 (constitutively active MEK1EE) (Q02750 whole entry S218E/S222E, species assumed): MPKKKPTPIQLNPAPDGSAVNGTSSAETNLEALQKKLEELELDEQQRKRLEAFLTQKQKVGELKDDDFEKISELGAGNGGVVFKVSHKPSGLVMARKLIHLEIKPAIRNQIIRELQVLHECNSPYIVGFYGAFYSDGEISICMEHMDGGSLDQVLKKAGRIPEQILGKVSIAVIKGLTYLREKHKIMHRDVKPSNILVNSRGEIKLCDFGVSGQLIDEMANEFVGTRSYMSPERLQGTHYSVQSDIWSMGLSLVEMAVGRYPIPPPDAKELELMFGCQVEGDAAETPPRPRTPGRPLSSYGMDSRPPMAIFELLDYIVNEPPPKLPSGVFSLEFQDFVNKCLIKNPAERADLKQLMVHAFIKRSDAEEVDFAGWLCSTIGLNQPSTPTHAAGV
Method: A 50 μl mixture containing 15 nM constitutively active MEK1EE and 300 nM of ERK2K52A were incubated either in the presence or absence of the compounds of the invention in 1% DMSO and 1× kinase buffer containing 3 μM ATP, […], […], 1 mM DTT and 100 μM Na3VO4 in Wallac 96 well black plates for 2 hours at room temperature. At the end of the incubation the enzyme reaction was quenched by adding 50 μl of assay buffer containing […] Tris-HCl, 50 mM EDTA, 0.1% BSA and a mixture of 1.25 μg/ml europium labeled anti-phosphotyrosine mAb and 5 μg/ml allophycocyanin labeled (APC) anti-GST antibody. Plates were agitated on a plate shaker for 30 minutes and phosphorylation of the ERK2K52A substrate was measured by homogenous time resolved fluorescence (HTRF) at 340 nm excitation and […] emission filters on the VICTOR V fluorescence plate reader. The results are of phosphorylation of ERK-2, with inhibition occurring at the MEK-1 level. Results were as follows for the specified compounds: […]

MEK-1/ERK-2 = MEK-1/ERK-2 (Homo sapiens, UniProt Q02750, S218E/S222E); assay: MEK-1/ERK-2 enzyme cascade assay (33P incorporation into MBP biotin); type: biochemical; details: 3 μM ATP, phosphorylation of myelin basic protein
Sequence of MEK-1/ERK-2 (Q02750 whole entry S218E/S222E): as the sequence (Q02750 whole entry S218E/S222E, species assumed) above
Method: MEK-1/ERK-2 Enzyme Cascade Assay
A 50 μl mixture containing 40 nM of constitutively active MEK1EE, 160 nM of ERK2 and 10 μM MBP biotin were incubated in the presence or absence of the below compound of the invention in 1% DMSO and 1× kinase buffer containing 3 μM ATP, 50 mM Tris-HCl pH 8.0, 10 mM MgCl2, 1 mM DTT, 100 μM Na3VO4 and […] ^33P-γATP in Wallac 96 well white plates for 2 hours at room temperature. At the end of the incubation the enzyme reaction was quenched by adding 200 μl Phosphate buffered saline (PBS) solution containing 1.25 mg/ml Streptavidin SPA beads, 50 mM EDTA and 0.1% Triton 100 and incubated further for 12-14 hours at room temperature. ^33P-γATP incorporation into MBP biotin was measured using the top counts. The assay read-out is phosphorylation of myelin basic protein, which is a representative substrate of ERK-2-phos. This assay is a further confirmatory screen of the assay of Example 38 above.

[2] = test system: murine colon carcinoma C26 cells; assay: Growth of tumors induced in CDF1 mice with murine colon carcinoma C26 cells; type: in vivo
Method: The aim of this study was to evaluate the effects of Example No. 30 in FIG. 1: […] Control group (empty circles) was treated with NP3S (5% N-methylpyrrolidone/30% PEG400/25% PEG200/20% Propylene Glycol in Saline) per os bid. […] Drugs treatment started 8 days following C26 cell injection and then continued for 13 days. […] Tumor volume and body weight were monitored every three days from day 8 until day 20.

TNF release (TNF-α) = assay: Inhibition of TNF-alpha production in LPS-stimulated mice; type: in vivo; details: −15 mn before LPS
Method: Injection of lipopolysaccharide (LPS) induces a rapid release of soluble tumor necrosis factor (TNF-α) into the periphery. This model is used to identify potential blockers of TNF release in vivo
The potency of compounds of the invention as inhibitors of serum TNFα elevation in mice treated with LPS is determined as follows:
• For per oral (p.o.) administration, compounds of the invention are formulated in 0.5% carboxymethyl cellulose/0.25% Tween 80 in saline and given orally via gavage […] to LPS administration. Dexamethasone is used as the reference compound and given at 0.1 mg/kg per orally. • C3/hen female mice (Iffa-Credo, France) are injected intraperitoneally with 0.3 mg/kg LPS (Escherichia coli, Serotype 0111:B4, Sigma Chemical Co., St. Louis, Mo.) and sacrificed 90 min later by CO2 asphyxiation. Blood is immediately taken from caudal vena cava and plasma prepared and frozen at −80° C. Each group of treatment contained 6 animals.

[3] = test system: primary rat granulosa cell; details: compound at 10 nM to 100 nM in the presence of picomolar FSH (2 to 5 picomolar)
Method: Cells were plated at 5000, 8,000 and 20,000 cells/well/200 μl of GAB medium on poly-D-lysine coated 96-well tissue culture plates. Plates were incubated at 37° C. in a 5% CO/95% air incubator for 3 days. […] The compound of the invention and picomolar FSH were then added to the cultures. Cells were incubated @ 37° C. in 5% CO2. Three days later, cell supernatants were collected and diluted 1:100 in GAB medium for measurement of estradiol by RIA. The RIA was performed according to manufacturer directions except that an estradiol standard was prepared in absolute ethanol at 100 ng/ml and then further diluted in GAB medium, instead of kit buffer.

Colon C26 cell = Colon C26 cell anti-proliferation assay; type: cell-based, murine; details: Colon C26 cells, 2×10^3 cells/well
Method: (§1) Compounds of the invention were tested for anti-proliferation activity against colon tumors (Colo205, HT-29, C26 and SW660 cell lines) by procedures described in Example 40 above. 2×10^3 cells/well used.

[4] = test system: Colon 205 cell (ATCC CCL-222); assay: Colon 205 cell anti-proliferation assay; type: cell-based; details: Colon 205 cells, 2×10^3 cells/well
Method: as §1

[5] = test system: SW 660 cell (ATCC CCL-227); assay: SW 660 cell anti-proliferation assay; type: cell-based; details: SW 660 cells, 2×10^3 cells/well
Method: as §1

[6] = test system: Kidney Adeno Carcinoma (ACHN cell line; ATCC CRL-1611)
Method: (§2) Breast cancer MCF-7 cells or ovarian cancer OVCAR-3 cells were plated in 96 well Packard white plates at 4×10^3 cells/well and cultured overnight at 37° C. in 5% CO2. The below specified test compounds were serially diluted in 100% DMSO and subsequently added to cells to reach a final concentration of 0.5% DMSO. MCF-7 and OVCAR-3 (ATCC HTB-161) plates were incubated for an additional 4 to 5 days respectively at 37° C. and 5% CO2 and cell proliferation was quantitated using the ATP lite cell proliferation kit (Packard).
(§3) (R) 4-iodo-benzoic acid 1-imidazol-1-yl methyl-2-phenoxy-ethyl ester (Example No. 1) was tested for anti-proliferation activity against additional tumor cell types as specified below by procedures described in Example 39 above. American Type Culture Collection (ATCC) deposit numbers are indicated below for many of the tested cell types. Results express, as follows, the concentration of compound of the invention (μM) required to inhibit the proliferation of the tumor cells by 50 percent relative untreated controls (i.e. IC50 (μM)).

[7] = test system: Lung Carcinoma (A549 cell line; ATCC CCL-185)
Method: as §2, §3

[8] = test system: Colon Adeno Carcinoma (DLD-1 cell line; ATCC CCL-221)
Method: as §2, §3

[9] = test system: Lung Carcinoma (PC-6 cell line)
Method: as §2, §3

[10] = test system: Pancreatic Carcinoma (MIA PaCa-2 cell line; ATCC CRL-1420)
Method: as §2, §3

[11] = test system: Colon Adeno Carcinoma (Grade II) (HT-29 cell line; ATCC HTB-38); details: HT-29 cell line (Example 42)
Method: as §2, §3

[12] = test system: Chronic Myelogenous Leukemia (K562 cell line; ATCC CCL-243)
Method: as §2, §3

[13] = test system: Breast Adeno Carcinoma (MCF-7 cell line); details: MCF-7 cell line (Example 42)
Method: as §2, §3

[14] = test system: Neuroepithelioma (SK-N-MC cell line; ATCC HTB-10)
Method: as §2, §3

[15] = test system: Promyelocytic Leukemia (HL-60 cell line; ATCC CRL-240)
Method: as §2, §3

[16] = test system: Malignant Melanoma (SK-MEL-5 cell line; ATCC HTB-70)
Method: as §2, §3

[17] = test system: Kidney Carcinoma (A498 cell line; ATCC HTB-44)
Method: as §2, §3

[18] = test system: Pancreatic Epithelioid Carcinoma (PANC-1 cell line; ATCC CRL-1469)
Method: as §2, §3

[19] = test system: Breast Ductal Carcinoma (T47D cell line; ATCC HTB-133)
Method: as §2, §3

[20] = test system: Prostate Adenocarcinoma (PC-3 cell line; ATCC CRL-1435)
Method: as §2, §3

HT-29 cell (ATCC HTB-38) = assay: HT-29 cell anti-proliferation assay; type: cell-based; details: HT-29 cells, 2×10^3 cells/well
Method: as §1

[21] = test system: Breast cancer MCF-7 cells; assay: MCF-7 tumor cell proliferation assay; type: cell-based; details: MCF-7, ATP lite cell proliferation kit
[22] = test system: ovarian cancer OVCAR-3 cells; assay: OVCAR-3 tumor cell proliferation assay; type: cell-based; details: OVCAR-3, ATP lite cell proliferation kit

IC50 [1]: 1.63 ± 0.241 µM | IC50 (MEK-1/ERK-2): 1.78 ± 0.254 µM
SMILES: COc1ccc(C(=O)OC(COc2ccccc2)Cn2ccnc2)cc1 (racemic) [4-methoxy-benzoic acid 1-imidazol-1-yl methyl-2-phenoxy-ethyl ester (racemic), 4-methoxy-benzoic acid 1-imidazol-1-yl methyl-2-phenoxy-ethyl ester]

SMILES: O=P1(N(CCCl)CCCl)NCCCO1 (stereo not shown) [Cyclophosphamide, reference compound]
inhibition of tumor growth at day 20 ([2]; 50 mg/kg s.c. every third day, 5 treatments, day 20): 73% | tumor growth (tumor volume) ([2]; 50 mg/kg s.c. every third day, day 11 until day 20 (p<0.001)): significantly slowed down tumor growth | tumor-associated loss in body weight ([2]; 50 mg/kg s.c. every third day, from day 11): markedly prevented

SMILES: C[C@@H]1C[C@H]2[C@@H]3CCC4=CC(=O)C=C[C@]4(C)[C@@]3(F)[C@@H](O)C[C@]2(C)[C@@]1(O)C(=O)CO [Dexamethasone, reference compound]
TNF Release vs LPS inj. % of inhibition Mean ± SEM (TNF release (TNF-α); 0.1 mg/kg p.o.): 86 ± 6% and 88 ± 1%

SMILES: O=C(OC(COc1ccccc1)Cn1ccnc1)c1ccc(I)cc1 (stereo not shown) [Example 1, 4-Iodo-benzoic acid 1-imidazol-1-yl methyl-2-phenoxy-ethyl ester]
estradiol production [3]: induces estradiol production | IC50 [1]: 0.039 ± 0.012 µM | IC50 (Colon C26 cell): 2.33 µM | IC50 [4]: 1.4 µM | IC50 [5]: 2.1 µM | IC50 [6]: > 100 µM | IC50 [7]: 25 µM | IC50 [8]: 36 µM | IC50 [9]: 43 µM | IC50 [10]: 3.1 µM | IC50 [11]: 4 µM | IC50 [12]: 33 µM | IC50 [13]: 33 µM | IC50 [14]: 6.7 µM | IC50 [15]: 3.6 µM | IC50 [16]: 11 µM | IC50 [17]: 54 µM | IC50 [18]: > 100 µM | IC50 [19]: 11 µM | IC50 [20]: 24 µM | IC50 (HT-29 cell (ATCC HTB-38)): 3.5 µM | IC50 [21]: 15 ± 7.1 µM | IC50 (MEK-1/ERK-2): 0.036 ± 0.008 µM | IC50 [22]: 25 µM

IC50 [1]: 0.86 ± 0.093 µM | IC50 (HT-29 cell (ATCC HTB-38); Homo sapiens): 27.5 µM | IC50 ([21]; Homo sapiens, MCF7): 32.5 ± 3.5 µM | IC50 (MEK-1/ERK-2): 0.92 ± 0.174 µM | IC50 ([22]; Homo sapiens): 40 µM
SMILES: COc1ccc(C(=O)O[C@@H](COc2ccccc2)Cn2ccnc2)cc1 [Example 6, (R)-4-Methoxy-benzoic acid 1-imidazol-1-yl methyl-2-phenoxy-ethyl ester]
IC50 [4]: 22.5 µM | IC50 [5]: 20 µM

IC50 [1]: 0.015 µM
SMILES: O=C(OC(COc1ccc([N+](=O)[O-])cc1)Cn1ccnc1)c1ccc(I)cc1 (stereo not shown) [Example 18, 4-Iodo-benzoic acid 2-imidazol-1-yl-1-(4-nitro-phenoxymethyl)-ethyl ester]
IC50 (Colon C26 cell; Mus musculus): 0.57 µM

SMILES: O=C(O[C@@H](COc1cccnc1)Cn1ccnc1)c1ccc(I)cc1 [Example 22, 4-Iodo-benzoic acid 1-imidazol-3-yl methyl-2-(pyridin-3-yloxy)-ethyl ester]
IC50 [1]: 0.011 µM | IC50 (Colon C26 cell; Mus musculus): 1.08 µM

IC50 [1]: 0.092 µM | IC50 (HT-29 cell (ATCC HTB-38); Homo sapiens): 2.8 µM | IC50 (MEK-1/ERK-2): 0.085 µM | IC50 ([22]; Homo sapiens): 50 µM
SMILES: O=C(N[C@@H](COc1ccccc1)Cn1ccnc1)c1ccc(I)cc1 [Example 27, N-(1-imidazol-1-ylmethyl-2-phenoxy-ethyl)-4-iodo-benzamide]
TNF Release vs LPS inj. % of inhibition Mean ± SEM (TNF release (TNF-α); 12.5 mg/kg p.o.): 32 ± 5% | TNF Release vs LPS inj. % of inhibition Mean ± SEM (TNF release (TNF-α); 50 mg/kg p.o.): 39 ± 3% | IC50 [4]: 2.1 µM | IC50 [5]: 2.2 µM

IC50 [1]: 0.021 µM
SMILES: O=C(NC(COc1ccc(F)cc1)Cn1ccnc1)c1ccc(I)cc1 (stereo not shown) [Example 30, N-[2-(4-Fluoro-phenoxy)-1-imidazol-1-ylmethyl-ethyl]-4-iodo-benzamide]
TNF Release vs LPS inj. % of inhibition Mean ± SEM (TNF release (TNF-α); 12.5 mg/kg p.o.): 77 ± 2% | TNF Release vs LPS inj. % of inhibition Mean ± SEM (TNF release (TNF-α); 50 mg/kg p.o.): 85 ± 3% | tumor-induced body weight loss ([2]; 50 mg/kg p.o. bid): significant prevention of tumor-induced body weight loss | tumor-induced body weight loss ([2]; 100 mg/kg p.o. bid): significant prevention of tumor-induced body weight loss | inhibition of tumor growth rate evaluated at day 20 ([2]; 100 mg/kg p.o. bid, day 20, vs NP3S control): 37% | tumor growth vs NP3S control group ([2]; 100 mg/kg p.o. bid, significant from day 11 to day 20): reduced tumor growth

SMILES: O=C(NC(COc1ccc(F)cc1)Cn1ccnc1Cl)c1ccc(I)cc1 (stereo not shown) [Example 34, N-[1-(2-Chloro-imidazol-1-ylmethyl)-2-(4-fluoro-phenoxy)-ethyl]-4-iodo-benzamide]
IC50 (Colon C26 cell; Mus musculus): 1.25 µM

SMILES: N#Cc1ccc(OCC(Cn2ccnc2Cl)NC(=O)c2ccc(I)cc2)cc1 (stereo not shown) [Example 35, N-[1-(2-Chloro-imidazol-1-ylmethyl)-2-(4-cyano-phenoxy)-ethyl]-4-iodo-benzamide]
IC50 (Colon C26 cell; Mus musculus): 0.3 µM
